Laboratory results taken from US20240209028A1, “CNP COMPOUNDS” (priority 2022, published 2024).
Starred links: 1 amine or outer side, 2 acyl side, 3 side chain; linkers in the order of their positions; H or OH if unused. Positions of bridges follow the written chain, without caps; N, C: chain ends. Residues, ends and D or L forms follow the SMILES beside them. *: point of attachment. C18 diacid = O=C(O)CCCCCCCCCCCCCCCCC(=O)*; γGlu = O=C(O)[C@H](CCC(=O)[*:2])N[*:1]; AEEA = NCCOCCOCC(=O)O

Experiments:
[1] = Thioflavin T (ThT) assay: lagtime and peptide recovery; type: physicochemical; settings: assay terminated after 45 hours; for LagTime (h) at pH 4.0: ThT, 37° C., shaking; for LagTime (h) at pH 6.5: ThT assay, pH 6.5, 37° C.
In short: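 ThT (final about 1 μM) was added to peptide supernatants at pH 4.0 and 6.5 and incubated at 37 °C with orbital shaking for 45 h. Fluorescence (ex 444/em 485 nm) was read every 20 min, and lag-time was taken as the time to onset of signal rise. Recovery is the RP-UPLC (215 nm) total peak area after vs. before incubation.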

[2] = High-Molecular-Weight-Protein (HMWP) formation by SEC-UPLC; type: physicochemical; settings: increase over two weeks at 37° C.
In short: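 Formulations at pH 4.0 or 6.5 incubated quiescently for two weeks at 37 °C; HMWP (peaks eluting before monomer, % of total peptide area) measured by SEC-UPLC, pH 2.4 mobile phase with 50% isopropanol, 50 °C, UV 215 nm. Value is HMWP increase, normalized to two weeks if needed.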

SMILES	LagTime (h) at pH 4.0 [1]	2-Week HMWP formation at pH 4.0 (%), % relative to total peak area [2]	LagTime (h) at pH 6.5 [1]	2-Week HMWP formation at pH 6.5 (%), % relative to total peak area ([2]; pH 6.5)
CC[C@H](C)[C@@H]1NC(=O)[C@H](CCCNC(=N)N)NC(=O)[C@H](CC(=O)O)NC(=O)[C@H](CC(C)C)NC(=O)[C@@H]2CCCN2C(=O)[C@H](CC(C)C)NC(=O)CNC(=O)[C@H](Cc2ccccc2)NC(=O)[C@@H](NC(=O)CNC(=O)[C@H](CCCCN)NC(=O)[C@H](CO)NC(=O)[C@H](CC(C)C)NC(=O)CNC(=O)[C@H](CCCCN)NC(=O)[C@H](CCCCN)NC(=O)[C@H](CCC(N)=O)NC(=O)[C@H](C)NC(=O)CNC(=O)[C@H](CCCCN)NC(=O)[C@H](Cc2ccc(O)cc2)NC(=O)[C@H](CCCCN)NC(=O)[C@H](CCCNC(=N)N)NC(=O)[C@H](C)NC(=O)[C@H](CCC(N)=O)NC(=O)[C@@H]2CCCN2C(=O)[C@H](Cc2c[nH]cn2)NC(=O)[C@H](CCC(=O)O)NC(=O)[C@H](CCC(N)=O)NC(=O)COCCOCCNC(=O)COCCOCCNC(=O)CC[C@H](NC(=O)CC[C@H](NC(=O)CC[C@H](NC(=O)CC[C@H](NC(=O)CC[C@H](NC(=O)CCCCCCCCCCCCCCCCC(=O)O)C(=O)O)C(=O)O)C(=O)O)C(=O)O)C(=O)O)CSSC[C@@H](C(=O)O)NC(=O)CNC(=O)[C@H](CC(C)C)NC(=O)CNC(=O)[C@H](CO)NC(=O)[C@H](CC(C)C)NC(=O)[C@H](CO)NC(=O)CNC1=O [compound 1474] ({C18 diacid-γGlu-γGlu-γGlu-γGlu-γGlu-AEEA-AEEA}-QEHPQARKYKGAQKKGLSKGCFGLPLDRIGSLSGLGC-OH; disulfide 21-37; C-terminus assumed)	45 h	1.6%	–	–
CC[C@H](C)[C@@H]1NC(=O)[C@H](CCCNC(=N)N)NC(=O)[C@H](CCC(=O)O)NC(=O)[C@H](CC(C)C)NC(=O)[C@@H]2CCCN2C(=O)[C@H](CC(C)C)NC(=O)CNC(=O)[C@H](Cc2ccccc2)NC(=O)[C@@H](NC(=O)CNC(=O)[C@H](CCC(N)=O)NC(=O)[C@H](CO)NC(=O)[C@H](CC(C)C)NC(=O)CNC(=O)[C@H](CCCCN)NC(=O)[C@H](CCCCN)NC(=O)[C@H](CCC(N)=O)NC(=O)[C@H](C)NC(=O)CNC(=O)[C@H](CCCCN)NC(=O)[C@H](Cc2ccc(O)cc2)NC(=O)[C@H](CCCCN)NC(=O)[C@H](CCCNC(=N)N)NC(=O)[C@H](C)NC(=O)COCCOCCNC(=O)COCCOCCNC(=O)COCCOCCNC(=O)COCCOCCNC(=O)CC[C@H](NC(=O)CC[C@H](NC(=O)CC[C@H](NC(=O)CC[C@H](NC(=O)CC[C@H](NC(=O)CCCCCCCCCCCCCCCCC(=O)O)C(=O)O)C(=O)O)C(=O)O)C(=O)O)C(=O)O)CSSC[C@@H](C(=O)O)NC(=O)CNC(=O)[C@H](CC(C)C)NC(=O)CNC(=O)[C@H](CO)NC(=O)[C@H](CC(C)C)NC(=O)[C@H](CO)NC(=O)CNC1=O [compound 1477] ({C18 diacid-γGlu-γGlu-γGlu-γGlu-γGlu-AEEA-AEEA-AEEA-AEEA}-ARKYKGAQKKGLSQGCFGLPLERIGSLSGLGC-OH; disulfide 16-32)	–	–	23 h	1.83%
CC[C@H](C)[C@@H]1NC(=O)[C@H](CCCNC(=N)N)NC(=O)[C@H](CC(=O)O)NC(=O)[C@H](CC(C)C)NC(=O)[C@@H]2CCCN2C(=O)[C@H](CC(C)C)NC(=O)CNC(=O)[C@H](Cc2ccccc2)NC(=O)[C@@H](NC(=O)CNC(=O)[C@H](CCC(N)=O)NC(=O)[C@H](CO)NC(=O)[C@H](CC(C)C)NC(=O)CNC(=O)[C@H](CCCCN)NC(=O)[C@H](CCCCN)NC(=O)[C@H](CCC(N)=O)NC(=O)[C@H](C)NC(=O)CNC(=O)[C@H](CCCCN)NC(=O)[C@H](Cc2ccc(O)cc2)NC(=O)COCCOCCNC(=O)COCCOCCNC(=O)COCCOCCNC(=O)COCCOCCNC(=O)CC[C@H](NC(=O)CC[C@H](NC(=O)CCCCCCCCCCCCCCCCC(=O)O)C(=O)O)C(=O)O)CSSC[C@@H](C(=O)O)NC(=O)CNC(=O)[C@H](CC(C)C)NC(=O)CNC(=O)[C@H](CO)NC(=O)[C@H](CC(C)C)NC(=O)[C@H](CO)NC(=O)CNC1=O [compound 1478] ({C18 diacid-γGlu-γGlu-AEEA-AEEA-AEEA-AEEA}-YKGAQKKGLSQGCFGLPLDRIGSLSGLGC-OH; disulfide 13-29; C-terminus assumed)	0.33 h	1.98%	45 h	–
CC[C@H](C)[C@@H]1NC(=O)[C@H](CCCNC(=N)N)NC(=O)[C@H](CCC(=O)O)NC(=O)[C@H](CC(C)C)NC(=O)[C@@H]2CCCN2C(=O)[C@H](CC(C)C)NC(=O)CNC(=O)[C@H](Cc2ccccc2)NC(=O)[C@@H](NC(=O)CNC(=O)[C@H](CCC(N)=O)NC(=O)[C@H](CO)NC(=O)CNC(=O)CNC(=O)[C@H](CCCCN)NC(=O)[C@H](CCCCN)NC(=O)[C@H](CCC(N)=O)NC(=O)[C@H](C)NC(=O)CNC(=O)[C@H](CCCCN)NC(=O)[C@H](Cc2ccc(O)cc2)NC(=O)COCCOCCNC(=O)COCCOCCNC(=O)COCCOCCNC(=O)COCCOCCNC(=O)CC[C@H](NC(=O)CC[C@H](NC(=O)CCCCCCCCCCCCCCCCC(=O)O)C(=O)O)C(=O)O)CSSC[C@@H](C(=O)O)NC(=O)CNC(=O)[C@H](CC(C)C)NC(=O)CNC(=O)[C@H](CO)NC(=O)[C@H](CC(C)C)NC(=O)[C@H](CO)NC(=O)CNC1=O [compound 1489] ({C18 diacid-γGlu-γGlu-AEEA-AEEA-AEEA-AEEA}-YKGAQKKGGSQGCFGLPLERIGSLSGLGC-OH; disulfide 13-29)	45 h	2.12%	–	–
